Measurements published in publication PMC9696794, “Synthesis and Antimicrobial Activity of Short Analogues of the Marine Antimicrobial Peptide Turgencin A: Effects of SAR Optimizations, Cys-Cys Cyclization and Lipopeptide Modifications” (International Journal of Molecular Sciences, 2022).
Values after ≈ are worked out from the molar mass of the structure shown. Where a SMILES comes first, the peptide text is derived from it. Bridges are numbered along the chain shown (N, C = ends). The star is where a group is joined. Octanoyl = CCCCCCCC(=O)*

How the values were obtained:
[1] = tested on: B. subtilis (Bs, ATCC 23857); assay: microbe, parasite or virus in culture; format: cell-based, Bacillus subtilis; conditions: ATCC 23857, 24 h
Outline: (§1)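 Cultures grown in Mueller–Hinton broth were adjusted by OD600 to 2.5–3 × 10^4 CFU/mL and mixed with two-fold peptide dilutions from 256 to 1 µg/mL. Plates were incubated at 35 °C with OD595 monitored every hour for 24 h.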

all bacterial strains = assay: Antibacterial MIC assay, all bacterial strains together (range or geometric mean); format: cell-based; conditions: for GM (geometric mean of the MIC values against all bacterial strains): Table 1, six bacterial strains; for GM of MIC Tot. bact.: Table S3, all bacterial test strains, MIC >256 set to 256
Outline: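 Broth microdilution in Mueller–Hinton broth against B. subtilis, C. glutamicum, S. aureus, S. epidermidis RP62A, E. coli and P. aeruginosa; inoculum 2.5–3 × 10^4 CFU/mL, 35 °C, OD595 read hourly for 24 h. MIC: lowest peptide concentration giving OD below 10% of growth control; geometric mean across strains, triplicate.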

[2] = tested on: S. aureus (Sa, ATCC 9144); assay: microbe, parasite or virus in culture; format: cell-based, Staphylococcus aureus; conditions: ATCC 9144, 24 h
Outline: as §1

[3] = tested on: Gram-positive bacterial strains; conditions: Table S3; MIC >256 set to 256
Outline: as §1

[4] = tested on: P. aeruginosa (Pa, ATCC 27853); assay: microbe, parasite or virus in culture; format: cell-based, Pseudomonas aeruginosa; conditions: ATCC 27853, 24 h
Outline: as §1

Rhodotorula sp. (Rh) = assay: microbe, parasite or virus in culture; format: cell-based; conditions: 48 h
Outline: (§2)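 Overnight cultures in potato dextrose broth with 2% glucose at 25–30 °C were diluted to approx. 4 × 10^5 spores/mL and mixed 1:1 with two-fold peptide dilutions plated at 256 to 1 µg/mL. After 48 h at room temperature, OD600 was read. MIC was the lowest concentration giving OD below 10% of the growth control, in triplicate.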

[5] = tested on: C. glutamicum (Cg, ATCC 13032); assay: microbe, parasite or virus in culture; format: cell-based, Corynebacterium glutamicum; conditions: ATCC 13032, 24 h
Outline: as §1

[6] = tested on: C. albicans (Ca, ATCC 10231); assay: microbe, parasite or virus in culture; format: cell-based, Candida albicans; conditions: ATCC 10231, 48 h
Outline: as §2

E. coli (Ec, ATCC 25922) = assay: microbe, parasite or virus in culture; format: cell-based, Escherichia coli; conditions: ATCC 25922, 24 h
Outline: as §1

[7] = tested on: Gram-negative bacterial strains (E. coli and P. aeruginosa); assay: Antibacterial MIC assay, Gram-negative strains together (range or geometric mean); format: cell-based; conditions: Table S3; MIC >256 set to 256
Outline: as §1

[8] = tested on: E. coli MC4100 (wild type, WT); assay: microbe, parasite or virus in culture; conditions: wild type
Procedure: (§3) All cyclic and linear peptides were screened for antibacterial activity against four Gram-positive strains: B. subtilis (Bs, ATCC 23857), C. glutamicum (Cg, ATCC 13032), S. aureus (Sa, ATCC 9144) and S. epidermidis RP62A (Se, ATCC 35984), and two Gram-negative strains: E. coli (Ec, ATCC 25922) and P. aeruginosa (Pa, ATCC 27853). The activity was assessed using a broth microdilution assay according to a modified CLSI-based method. Briefly, overnight bacterial cultures were grown in Mueller–Hinton (MH) broth medium (Difco Laboratories, Detroit, MI, USA) for 2 h at room temperature. The optical density (OD600) was measured, and the bacterial suspensions were adjusted to 2.5–3 × 10^4 CFU/mL in MH medium. The bacterial suspension (50 µL) was distributed in 96-well plates (Nunc, Roskilde, Denmark) preloaded with two-fold dilution series (256 to 1 µg/mL) of peptide solutions (50 µL), giving a final well volume of 100 µL. The microplates were incubated in an EnVision 2103 microplate reader (PerkinElmer, Llantrisant, UK) at 35 °C, with OD595 recorded every hour for 24 h. MIC was defined as the lowest concentration of peptides showing an optical density less than 10% of the negative (growth) control, consisting of bacterial suspension and water. Polymyxin B sulfate (Sigma-Aldrich, St. Louis, MO, USA) and chlorhexidine acetate (CHX, Fresenius Kabi, Halden, Norway), both with concentrations ranging from 12.5 to 0.09 μg/mL, served as positive (growth inhibition) controls. All peptides were tested in triplicate.
(§4) MIC values were determined for all cyclic peptides against two E. coli strains: wild type (WT) MC4100 and the hyperpermeable variant NR698, having a deficient outer membrane. The NR698 strain, containing lptD4213/imp4213 mutation, was kindly provided by M. Grabowicz (Emory University School of Medicine, Rollins Research Center, Atlanta, GA, USA). The assay was performed in the same way as previously described for the antibacterial MIC assay.

[9] = tested on: E. coli NR698 (outer membrane permeable mutant, imp4213); assay: microbe, parasite or virus in culture; conditions: MC4100 NR698 imp4213, deficient outer membrane
Procedure: as §3, §4

[10] = tested on: human red blood cells (RBC); assay: Haemolytic activity assay; format: cell-based; conditions: for Selectivity index (SI) G- / Selectivity index (SI) G+ / Selectivity index (SI) Fungi: Table S3, highest tested concentration used where EC50 above it; for Selectivity index (SI) G-: EC50/GM of Gram-negative strains; for Selectivity index (SI) G+: EC50/GM of Gram-positive strains; for Selectivity index (SI) Fungi: EC50/GM of fungi; for SI (selectivity index = EC50/GM): haemolytic EC50 over GM of MIC against all bacterial strains, Table 1; for RBC Tox. (EC50), haemolytic activity: human RBC, 1 h, 37 °C, concentration giving 50% haemolysis
Outline: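 Washed human erythrocytes (1% hematocrit final) incubated 1 h at 37 °C with agitation with lipopeptides at 500–3.9 μM in PBS (≤1% DMSO), duplicates. Haemoglobin release read at 545 nm relative to 0.1% Triton X-100; EC50 is 50% haemolysis, averaged from three experiments.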

[11] = tested on: fungi (A. pullulans, C. albicans, Rhodotorula sp.); assay: Antifungal MIC assay, all fungi together (range or geometric mean); format: cell-based; conditions: Table S3; MIC >128 set to 128
Outline: as §2

[12] = tested on: S. epidermidis RP62A (Se, ATCC 35984); assay: microbe, parasite or virus in culture; format: cell-based, Staphylococcus epidermidis; conditions: ATCC 35984, 24 h
Outline: as §1

A. pullulans (Ap) = assay: microbe, parasite or virus in culture; format: cell-based, Aurobasidium pollulans; conditions: 48 h
Outline: as §2

Structure (SMILES) | Antimicrobial Activity (MIC) Gram + Bs [1] [µg/mL] | GM (geometric mean of the MIC values against all bacterial strains) (all bacterial strains) [µg/mL] | GM of MIC Tot. bact. (all bacterial strains) [µg/mL] | Antimicrobial Activity (MIC) Gram + Sa [2] [µg/mL] | GM of MIC G+ [3] [µg/mL] | Antimicrobial Activity (MIC) Gram − Pa [4] [µg/mL] | Antimicrobial Activity (MIC) Fungi Rh (Rhodotorula sp. (Rh)) [µg/mL] | Antimicrobial Activity (MIC) Gram + Cg [5] [µg/mL] | Antimicrobial Activity (MIC) Fungi Ca [6] [µg/mL] | Antimicrobial Activity (MIC) Gram − Ec (E. coli (Ec, ATCC 25922)) [µg/mL] | GM of MIC G- [7] [µg/mL] | MIC E. coli MC4100 (WT) [8] [µg/mL] | MIC E. coli NR698 (mutant) [9] [µg/mL] | Selectivity index (SI) G- [10] | Selectivity index (SI) G+ [10] | Selectivity index (SI) Fungi [10] | SI (selectivity index = EC50/GM) [10] | RBC Tox. (EC50), haemolytic activity [10] [µg/mL] | GM of MIC Fungi [11] [µg/mL] | Antimicrobial Activity (MIC) Gram + Se [12] [µg/mL] | also measured
CCCCCCCC(=O)N[C@H]1CSSC[C@@H](C(=O)N[C@@H](CCCCN)C(=O)N[C@@H](CC(C)C)C(N)=O)NC(=O)[C@H](CCCCN)NC(=O)[C@H](Cc2c[nH]c3ccccc23)NC(=O)CNC(=O)CNC(=O)[C@@H]2CCCN2C(=O)[C@H](CCCCN)NC(=O)[C@H](CCCCN)NC(=O)CNC1=O [Peptide C8-cTurg-1, C8 -(CGKKPGGWKC)KL-NH2] (Octanoyl-CGKKPGGWKCKL-NH2; disulfide 1-10) | 4 | 25 | 25 | 128 | 16 | 128 | 8 | 4 | 64 | 32 | 64 | 16 (≈ 11.2 µM) | 8 (≈ 5.6 µM) | > 15 | > 59 | > 29 | >37 | >942 | 32 | 32 | Antimicrobial Activity (MIC) Fungi Ap (A. pullulans (Ap)): 64 µg/mL
CC(C)C[C@H](NC(=O)[C@H](CCCNC(=N)N)NC(=O)[C@@H]1CSSC[C@H](N)C(=O)NCC(=O)N[C@@H](CCCNC(=N)N)C(=O)N[C@@H](CCCNC(=N)N)C(=O)N2CCC[C@H]2C(=O)N[C@@H](Cc2c[nH]c3ccccc23)C(=O)N[C@@H](Cc2c[nH]c3ccccc23)C(=O)N[C@@H](Cc2c[nH]c3ccccc23)C(=O)N[C@@H](CCCNC(=N)N)C(=O)N1)C(N)=O [cTurg-7] (H-CGRRPWWWRCRL-NH2; disulfide 1-10; N-terminus assumed) | 4 | 10 | 10 | 16 | 7 | 32 | 32 | 4 | 32 | 16 | 23 | 8 (≈ 4.78 µM) | 8 (≈ 4.78 µM) | 9 | 29 | 6 | 20 | 197 | 32 | 8 | Antimicrobial Activity (MIC) Fungi Ap (A. pullulans (Ap)): 32 µg/mL
CC(C)C[C@H](NC(=O)[C@H](CCCNC(=N)N)NC(=O)[C@@H]1CSSC[C@H](N)C(=O)NCC(=O)N[C@@H](CCCNC(=N)N)C(=O)N[C@@H](CCCNC(=N)N)C(=O)N[C@@H](Cc2c[nH]c3ccccc23)C(=O)N[C@@H](Cc2c[nH]c3ccccc23)C(=O)NCC(=O)N[C@@H](Cc2c[nH]c3ccccc23)C(=O)N[C@@H](CCCNC(=N)N)C(=O)N1)C(N)=O [cTurg-5] (H-CGRRWWGWRCRL-NH2; disulfide 1-10; N-terminus assumed) | 8 | 9 | 9 | 16 | 8 | 16 | 32 | 4 | 32 | 8 | 11 | 8 (≈ 4.9 µM) | 8 (≈ 4.9 µM) | > 97 | > 138 | > 34 | >123 | >1101 | 32 | 8 | Antimicrobial Activity (MIC) Fungi Ap (A. pullulans (Ap)): 32 µg/mL
